The values that follow come from US11116212B2, “Carbonyl containing compounds for controlling and repelling Cimicidae populations” (SemiosBio Technologies Inc., priority 2011, dated 2021).

In this assay the test system is bed bugs, Cimex lectularius. Put plainly: Bed bug repellency bioassay, glass tube olfactometer arena. The assay is classed as in vivo. The conditions noted are these: for pest or weed control at 5 % strength / pest or weed control at 1 % / pest or weed control at 25 % strength: Cimex lectularius; for pest or weed control at 1 %: 10 uL, 1% v/v in hexane; for % Repellency, At least One Average >50%: best average over 3 replicates for a single time period. The protocol:
Per individual bioassay, 10 adult or late instar nymph bed bugs, Cimex lectularius, of mixed sex. Bed bugs sourced from wild, field populations and tested within 2 weeks of capture. Subjects were tested one time, only.
(ii) Olfactometer consisting of a glass tube. Tube ends were plugged to prevent egress of test subjects. Test substrates were placed at opposite ends of the tube. Tube Olfactometer includes a port in the centre for introduction of test subjects. Dimensions of the tube were 15.2 mm in diameter by 304.8 mm long.
Compounds were either purchased from commercial sources or synthesized using conventional synthetic organic chemistry techniques (see, for example, Examples 5 to 7). Some compounds (014, 058 and 080) were tested in duplicate (one version from commercial sources and one synthesized) and the best performance is reported in the Tables below. Of the tested compounds reported in the Tables below, the following compounds were synthesized: 006, 010, 017, 018, 040, 041 to 043, 045, 046, 048, 049, 058, 067 to 075, 079, 080 to 082, 089 and 090.
Test compounds consisted of a control and treatment. The treatment consisted of a test compound mixed as a percentage w/w in a suitable solvent. The test compound solvent itself was used as a control. Solvents used were hexane, hexane:methanol, or dichloromethane:methanol.
(i) Gauze cut to a standard size and folded upon itself to provide harbourage for test subjects.
(iii) Absorbent polymer “aroma” beads that were given sufficient time to fully absorb test compounds and control solvents.
In the case of gauze and filter paper substrates, control solvents and test mixtures of known concentrations and volumes were dispensed directly onto substrates using a pipette. For polymer beads, beads were mixed w/w with solvent or test compound in a small glass jar. The jars were occasionally agitated to facilitate soaking of the beads.
Immediately after the substrates were infused with test compounds and control solvents, test subjects were introduced to the centre of the selected observation arena. […] Only subjects that were in close contact with the treatment or control substrates were recorded. Subjects elsewhere in the arena were not included in repellency calculations. Percentage repellency was calculated based on a modification of Abbott's formula to account for negative repellency (attraction). Specifically: IF(C>=T,(C−T)/C*100,(T−C)/T*−100)
where C is number of test subjects in contact with control substrate and T is number of test subjects in contact with treatment substrate.
All average repellency results reported in the table are based on 3 replicates for each reported trial, with each trial involving at least 3 observation periods. The observation periods were short-term (30 min), medium-term (1-2 hours), and long-term (24-48 hours). The “overall average” reported in the table represents the average for 3 replicates for 3 observation periods. […]
To determine whether compounds could be combined in the repellent compositions, compounds 14 and 35 were each tested at a concentration of 5% (w/w), and as a combination comprising each compound at a concentration of 2.5% (w/w). The formulations were tested as described in Example 1 using the olfactometer configuration.

Setting [1] is: gauze, 50 uL, 5% w/v in hexane, average of 3 replicates x 3 observation periods, read-out: % Repellency (% R), Overall Average.
The mark [2] stands for this setting: gauze, average of 3 replicates x 3 observation periods, read-out: % Repellency (% R), Overall Average.
[3] abbreviates: gauze, best single observation (one repetition, one time), read-out: % Repellency, At least One Time >50%.
The mark [4] stands for this setting: observation period T1, gauze, read-out: % Repellency T1 (average of 3 repetitions).
The mark [5] stands for this setting: observation period T2, gauze, read-out: % Repellency T2 (average of 3 repetitions).
[6] abbreviates: observation period T3, gauze, read-out: % Repellency T3 (average of 3 repetitions).
[7] abbreviates: observation period T1, gauze, 50 uL, 5% w/v in hexane, read-out: % Repellency T1 (average of 3 repetitions).
Where [8] appears, read: observation period T2, gauze, 50 uL, 5% w/v in hexane, read-out: % Repellency T2 (average of 3 repetitions).
[9] abbreviates: observation period T3, gauze, 50 uL, 5% w/v in hexane, read-out: % Repellency T3 (average of 3 repetitions).
Where [10] appears, read: beads, 20 uL, 25% w/w in hexane, average of 3 replicates x 3 observation periods, read-out: % Repellency (% R), Overall Average.
Where [11] appears, read: observation period T1, beads, 20 uL, 25% w/w in hexane, read-out: % Repellency T1 (average of 3 repetitions).
Setting [12] is: observation period T2, beads, 20 uL, 25% w/w in hexane, read-out: % Repellency T2 (average of 3 repetitions).
Where [13] appears, read: observation period T3, beads, 20 uL, 25% w/w in hexane, read-out: % Repellency T3 (average of 3 repetitions).
The mark [14] stands for this setting: beads, 20 uL, 25% w/w in hexane.
The mark [15] stands for this setting: gauze, 50 uL, 5% w/v in hexane, best single observation (one repetition, one time), read-out: % Repellency, At least One Time >50%.

Structures can show the parent of a compound that is named as a salt. Where two headings read alike, the source gives them in different places. Some results are limits rather than exact numbers.

With `CC(=O)/C=C/C=O` [Compound 001, 4-oxo-2-pentenal], the pest or weed control at 5 % strength under setting [1] was 57%.
Still for that read-out and setting: to `CCCC(=O)/C=C/C=O` [Compound 003, 4-oxo-2-heptenal] belongs greater than 80%.
For the molecule `CCC(=O)/C=C/CO` [Compound 006, (E)-6-hydroxyhex-4-en-3-one], the pest or weed control at 1 % is -49% under setting [2]; 57% under setting [3]; -62% under setting [4]; -74% under setting [5]; -11% under setting [6].
For the molecule `CCC(=O)OCC=O` [Compound 008, 2-oxoethyl propionate], the pest or weed control at 5 % strength under setting [1] was 27%, the pest or weed control at 5 % strength under setting [7] is 12%, the pest or weed control at 5 % strength under setting [8] is 53% and the pest or weed control at 5 % strength under setting [9] is 17%. Moreover, for the setting “gauze, 50 uL, 5% w/v in hexane”, the “% Repellency, At least One Average >50%” value was 53%.
Turning to `CCC(=O)COC=O` [Compound 010, 2-oxobutyl formate], the pest or weed control at 25 % strength under setting [10] stood at 45%, the pest or weed control at 25 % strength under setting [11] worked out at 85%, the pest or weed control at 25 % strength under setting [12] is 42% and the pest or weed control at 25 % strength under setting [13] was determined as 8%. Moreover, under setting [14], the “% Repellency, At least One Average >50%” value turned out to be 85%.
`CCC(=O)c1ccco1` [Compound 014, 1-(furan-2-yl)propan-1-one]: under setting [10], the pest or weed control at 25 % strength was greater than 80%. Also, the “% R (Overall Average)” value (Example 2, single compound at 5% (w/w)) is listed as 71%.
With `C=CCOC(=O)CC` [Compound 017, allyl propionate], the pest or weed control at 1 % reads like this: under setting [2], 4%; under setting [3], 90%; under setting [4], -20%; under setting [5], 13%; under setting [6], 18%.
Consider `CCC(=O)NCCO` [Compound 018, N-(2-hydroxyethyl) propionamide], for which the pest or weed control at 25 % strength under setting [10] turned out to be 50%, the pest or weed control at 25 % strength under setting [11] worked out at 69%, the pest or weed control at 25 % strength under setting [12] is 69% and the pest or weed control at 25 % strength under setting [13] worked out at 11%. Also, the “% Repellency, At least One Average >50%” value under setting [14] is reported as 69%.
As to `CCCCCCCCCCCC(C)=O` [Compound 024, Methyl undecyl ketone (2-tridecanone)], the pest or weed control at 5 % strength under setting [1] is greater than 80%.
For the molecule `CC(=O)C(C)C(C)C(C)=O` (stereo not shown) [Compound 025, 3,4-dimethyl-2,5-hexanedione], under setting [10], the pest or weed control at 25 % strength stood at 77%.
Take `CCCC(=O)CC` [Compound 026, 3-Hexanone]: the pest or weed control at 5 % strength is, setting by setting: under setting [1], 15%; under setting [15], 100%; under setting [7], 44%; under setting [8], 37%; under setting [9], -36%.
Turning to `CCC(=O)C(=O)CC` [Compound 027, 3,4-Hexanedione], for the setting “read-out: % Repellency (% R), Overall Average, gauze, 50 uL, 5% w/v in hexane, average of 3 replicates x 3 observation periods”, the pest or weed control at 5 % strength turned out to be 75%.
`CCCCCCC(=O)CC` [Compound 028, 3-Nonanone]: the pest or weed control at 1 % is -10% under setting [2]; 67% under setting [3]; -11% under setting [4]; -11% under setting [5]; -6% under setting [6].
Turning to `C=COC(=O)CC` [Compound 031, Vinyl propionate], the pest or weed control at 5 % strength is, setting by setting: under setting [1], 8%; under setting [15], 100%; under setting [7], 45%; under setting [8], 45%; under setting [9], -67%.
In the case of `CCC(=O)NC` [Compound 032, N-Methylpropionamide], the pest or weed control at 25 % strength (read-out: % Repellency (% R), Overall Average, beads, 20 uL, 25% w/w in hexane, average of 3 replicates x 3 observation periods) is -9%; the pest or weed control at 25 % strength (read-out: % Repellency T1 (average of 3 repetitions), observation period T1, beads, 20 uL, 25% w/w in hexane) came to 39%; the pest or weed control at 25 % strength (read-out: % Repellency T2 (average of 3 repetitions), observation period T2, beads, 20 uL, 25% w/w in hexane) was -40%; the pest or weed control at 25 % strength (read-out: % Repellency T3 (average of 3 repetitions), observation period T3, beads, 20 uL, 25% w/w in hexane) is -25%; the pest or weed control at 25 % strength (read-out: % Repellency, At least One Time >50%, beads, 20 uL, 25% w/w in hexane, best single observation (one repetition, one time)) turned out to be 100%.
For `CCC(=O)CC(=O)OC` [Compound 034, Methyl 3-oxovalerate], the pest or weed control at 5 % strength reads like this: under setting [1], 27%; under setting [7], 81%; under setting [8], 94%; under setting [9], -94%. Also, for the setting “gauze, 50 uL, 5% w/v in hexane”, the “% Repellency, At least One Average >50%” value is 94%.
As for `CCCCCC=O` [Compound 037, hexanal], under setting [1], the pest or weed control at 5 % strength amounted to 79%.
The same measure, in the same setting: to `CCC/C=C/C=O` [Compound 038, trans-2-hexen-1-al] belongs 72%; to `CCCCC/C=C/C=O` [Compound 039, trans-2-octenal], 78%; to `CCC(=O)/C=C/c1ccco1` [Compound 040, (E)-1-(furan-2-yl)pent-1-en-3-one], greater than 80%.
On to `CCCCC(=O)/C=C/CO` [Compound 041, (E)-1-hydroxyoct-2-en-4-one], for which, under setting [1], the pest or weed control at 5 % strength is greater than 80%.
In the case of `CCC(=O)/C=C/C(C)O` (stereo not shown) [Compound 042, (E)-6-hydroxyhept-4-en-3-one], under setting [1], the pest or weed control at 5 % strength stood at 76%.
Turning to `C=CCNC(=O)CC` [Compound 043, N-allylpropionamide], under setting [1], the pest or weed control at 5 % strength amounted to 59%.
The same measure, in the same setting: the figure for `CC(=O)CC/C=C(\C)CCC=C(C)C` [Compound 044, 6,10-dimethyl-5,9-undecadien-2-one] is greater than 80%; for `CCC(=O)NCC(OC)OC` [Compound 045, N-(2,2-dimethoxyethyl) propionamide] it is 70%; for `CCCC(=O)/C=C/CO` [Compound 046, (E)-1-hydroxyhept-2-en-4-one] it is 65%.
Consider `CCC(=O)/C(C)=C/c1ccco1` [Compound 048, (E)-1-(furan-2-yl)-2-methylpent-1-en-3-one], for which, under setting [1], the pest or weed control at 5 % strength is greater than 80%.
Turning to `CCC(=O)N(C)CC(OC)OC` [Compound 049, N-(2,2-dimethoxyethyl)-N-methylpropionamide], the pest or weed control at 1 % under setting [2] turned out to be 78%.
On to `CCCC(=O)CCC` [Compound 051, 4-heptanone], for which, under setting [10], the pest or weed control at 25 % strength was greater than 80%.
